From paper PMC7827406, “Structure–Activity Relationship (SAR) Study of Spautin-1 to Entail the Discovery of Novel NEK4 Inhibitors” (International Journal of Molecular Sciences, 2021)
Where two headings read alike, the source gives them in different places.

Tests used:
Assay in all cases: biochemical
Design in all cases: Eurofins KinaseProfiler full panel at Km ATP, residual kinase activity (%) relative to DMSO
PRK1(h) = target: T1, PRK1(h) (Homo sapiens, UniProt Q16512)
T1 construct: gene PKN1
Procedure, shortened: (§1)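 Compounds screened at 10 µM in radiometric kinase activity assays at Km ATP, reported as remaining kinase activity (%). A KINOMEscan competition-binding screen at 10 µM measured DNA-tagged kinase retained on immobilized active-site ligand by qPCR.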

PRKG2(h) = target: T2, PRKG2(h) (Homo sapiens, UniProt Q13237)
T2 sequence (Q13237 1-762): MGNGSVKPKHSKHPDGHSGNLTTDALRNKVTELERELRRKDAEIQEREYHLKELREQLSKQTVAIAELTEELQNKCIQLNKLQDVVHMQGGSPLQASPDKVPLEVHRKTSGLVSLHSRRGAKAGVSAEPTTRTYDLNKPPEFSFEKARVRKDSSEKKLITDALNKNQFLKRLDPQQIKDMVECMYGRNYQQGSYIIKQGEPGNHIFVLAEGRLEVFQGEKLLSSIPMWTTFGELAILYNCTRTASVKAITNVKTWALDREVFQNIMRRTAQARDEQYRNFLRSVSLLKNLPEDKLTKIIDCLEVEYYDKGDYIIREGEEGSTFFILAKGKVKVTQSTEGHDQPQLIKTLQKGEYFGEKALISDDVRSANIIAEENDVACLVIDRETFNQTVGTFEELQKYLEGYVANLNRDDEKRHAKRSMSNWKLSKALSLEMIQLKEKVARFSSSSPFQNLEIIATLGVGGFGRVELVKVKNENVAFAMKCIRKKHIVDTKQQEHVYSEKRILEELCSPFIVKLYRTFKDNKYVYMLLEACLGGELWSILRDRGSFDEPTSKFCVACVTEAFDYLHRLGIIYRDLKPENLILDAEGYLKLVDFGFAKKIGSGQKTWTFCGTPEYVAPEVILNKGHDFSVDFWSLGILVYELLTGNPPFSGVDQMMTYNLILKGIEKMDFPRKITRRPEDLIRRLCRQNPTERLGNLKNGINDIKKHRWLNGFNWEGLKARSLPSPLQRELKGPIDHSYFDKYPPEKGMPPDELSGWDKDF
Procedure, shortened: as §1

EGFR(T790M)(h) = EGFR(T790M)(h) (Homo sapiens, UniProt P00533, T790M)
EGFR(T790M)(h), sequence (P00533 whole entry T790M): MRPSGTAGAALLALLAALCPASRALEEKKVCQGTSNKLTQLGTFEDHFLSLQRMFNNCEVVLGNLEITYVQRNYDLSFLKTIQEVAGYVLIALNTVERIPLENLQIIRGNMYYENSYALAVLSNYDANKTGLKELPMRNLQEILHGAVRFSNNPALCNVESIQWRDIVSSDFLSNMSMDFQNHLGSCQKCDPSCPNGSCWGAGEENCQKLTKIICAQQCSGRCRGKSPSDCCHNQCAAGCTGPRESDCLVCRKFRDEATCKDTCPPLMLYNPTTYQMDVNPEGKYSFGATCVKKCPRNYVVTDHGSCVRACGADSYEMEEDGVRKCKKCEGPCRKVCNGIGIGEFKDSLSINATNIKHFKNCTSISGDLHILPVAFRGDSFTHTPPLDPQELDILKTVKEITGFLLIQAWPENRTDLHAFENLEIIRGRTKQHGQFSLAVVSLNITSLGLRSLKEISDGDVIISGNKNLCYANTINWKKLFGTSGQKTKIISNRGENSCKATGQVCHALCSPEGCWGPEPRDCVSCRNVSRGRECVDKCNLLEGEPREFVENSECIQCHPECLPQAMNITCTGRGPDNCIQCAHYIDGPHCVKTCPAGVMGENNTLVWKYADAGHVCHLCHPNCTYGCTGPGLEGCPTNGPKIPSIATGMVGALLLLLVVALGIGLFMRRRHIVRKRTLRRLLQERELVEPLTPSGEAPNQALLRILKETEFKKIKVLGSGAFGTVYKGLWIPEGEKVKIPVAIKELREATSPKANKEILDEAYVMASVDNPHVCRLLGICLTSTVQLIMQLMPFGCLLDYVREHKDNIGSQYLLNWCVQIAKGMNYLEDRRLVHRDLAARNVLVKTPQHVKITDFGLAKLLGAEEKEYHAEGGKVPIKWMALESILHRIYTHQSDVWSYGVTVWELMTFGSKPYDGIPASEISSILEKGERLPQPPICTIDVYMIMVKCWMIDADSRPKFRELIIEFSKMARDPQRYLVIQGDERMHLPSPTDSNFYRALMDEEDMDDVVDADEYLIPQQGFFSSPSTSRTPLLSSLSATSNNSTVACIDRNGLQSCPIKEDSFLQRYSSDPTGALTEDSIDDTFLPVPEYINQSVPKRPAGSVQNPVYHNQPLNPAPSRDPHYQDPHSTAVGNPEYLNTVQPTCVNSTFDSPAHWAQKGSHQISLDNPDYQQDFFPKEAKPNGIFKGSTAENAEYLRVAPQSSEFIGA
Procedure, shortened: as §1

TLK1(h) = target: T3, TLK1(h) (Homo sapiens, UniProt Q9UKI8)
T3 sequence (Q9UKI8 1-766): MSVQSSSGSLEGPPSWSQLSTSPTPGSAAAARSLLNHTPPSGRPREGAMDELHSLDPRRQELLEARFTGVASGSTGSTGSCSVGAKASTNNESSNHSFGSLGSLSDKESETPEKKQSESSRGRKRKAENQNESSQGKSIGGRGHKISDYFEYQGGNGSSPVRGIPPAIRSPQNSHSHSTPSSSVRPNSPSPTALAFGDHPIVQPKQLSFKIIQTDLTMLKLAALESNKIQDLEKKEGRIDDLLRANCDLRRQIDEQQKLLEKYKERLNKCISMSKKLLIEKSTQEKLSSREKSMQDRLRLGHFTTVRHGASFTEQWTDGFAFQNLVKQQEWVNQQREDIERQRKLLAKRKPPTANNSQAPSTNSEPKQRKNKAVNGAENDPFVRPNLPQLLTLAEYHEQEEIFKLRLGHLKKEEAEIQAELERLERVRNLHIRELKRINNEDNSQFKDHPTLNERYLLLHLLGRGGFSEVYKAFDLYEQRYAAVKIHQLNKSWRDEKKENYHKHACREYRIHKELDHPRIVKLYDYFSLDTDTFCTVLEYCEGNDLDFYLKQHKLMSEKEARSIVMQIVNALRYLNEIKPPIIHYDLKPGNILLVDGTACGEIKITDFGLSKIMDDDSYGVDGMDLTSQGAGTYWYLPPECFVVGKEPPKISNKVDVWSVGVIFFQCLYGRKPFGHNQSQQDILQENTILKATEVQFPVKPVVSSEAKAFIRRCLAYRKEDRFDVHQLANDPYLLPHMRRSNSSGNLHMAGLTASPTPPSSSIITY
Procedure, shortened: as §1

NUAK2(h) = target: T4, NUAK2(h) (Homo sapiens, UniProt Q9H093)
T4 sequence (Q9H093 1-628): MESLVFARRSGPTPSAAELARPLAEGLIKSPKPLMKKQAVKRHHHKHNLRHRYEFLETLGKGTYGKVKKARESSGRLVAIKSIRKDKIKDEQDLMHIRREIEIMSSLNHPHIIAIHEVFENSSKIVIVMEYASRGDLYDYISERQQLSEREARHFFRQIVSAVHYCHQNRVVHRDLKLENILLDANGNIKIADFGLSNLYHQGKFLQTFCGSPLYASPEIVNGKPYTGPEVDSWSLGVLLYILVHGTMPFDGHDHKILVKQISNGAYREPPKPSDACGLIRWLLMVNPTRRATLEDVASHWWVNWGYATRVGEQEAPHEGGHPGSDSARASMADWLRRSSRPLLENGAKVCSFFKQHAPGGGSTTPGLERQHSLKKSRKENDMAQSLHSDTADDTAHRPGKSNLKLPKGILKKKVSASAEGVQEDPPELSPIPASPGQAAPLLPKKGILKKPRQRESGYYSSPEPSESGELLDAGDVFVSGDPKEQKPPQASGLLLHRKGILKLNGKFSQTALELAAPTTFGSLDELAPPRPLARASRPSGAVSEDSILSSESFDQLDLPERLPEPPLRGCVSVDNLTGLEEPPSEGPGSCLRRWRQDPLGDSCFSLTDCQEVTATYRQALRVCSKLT
Procedure, shortened: as §1

[1] = read-out: Residual activity (%) 5ay
[2] = read-out: Residual activity (%) Spautin-1 5aa
[3] = read-out: Residual activity (%) 5at
[4] = read-out: Residual activity (%) 5as

T1 sequence (Q16512 whole entry): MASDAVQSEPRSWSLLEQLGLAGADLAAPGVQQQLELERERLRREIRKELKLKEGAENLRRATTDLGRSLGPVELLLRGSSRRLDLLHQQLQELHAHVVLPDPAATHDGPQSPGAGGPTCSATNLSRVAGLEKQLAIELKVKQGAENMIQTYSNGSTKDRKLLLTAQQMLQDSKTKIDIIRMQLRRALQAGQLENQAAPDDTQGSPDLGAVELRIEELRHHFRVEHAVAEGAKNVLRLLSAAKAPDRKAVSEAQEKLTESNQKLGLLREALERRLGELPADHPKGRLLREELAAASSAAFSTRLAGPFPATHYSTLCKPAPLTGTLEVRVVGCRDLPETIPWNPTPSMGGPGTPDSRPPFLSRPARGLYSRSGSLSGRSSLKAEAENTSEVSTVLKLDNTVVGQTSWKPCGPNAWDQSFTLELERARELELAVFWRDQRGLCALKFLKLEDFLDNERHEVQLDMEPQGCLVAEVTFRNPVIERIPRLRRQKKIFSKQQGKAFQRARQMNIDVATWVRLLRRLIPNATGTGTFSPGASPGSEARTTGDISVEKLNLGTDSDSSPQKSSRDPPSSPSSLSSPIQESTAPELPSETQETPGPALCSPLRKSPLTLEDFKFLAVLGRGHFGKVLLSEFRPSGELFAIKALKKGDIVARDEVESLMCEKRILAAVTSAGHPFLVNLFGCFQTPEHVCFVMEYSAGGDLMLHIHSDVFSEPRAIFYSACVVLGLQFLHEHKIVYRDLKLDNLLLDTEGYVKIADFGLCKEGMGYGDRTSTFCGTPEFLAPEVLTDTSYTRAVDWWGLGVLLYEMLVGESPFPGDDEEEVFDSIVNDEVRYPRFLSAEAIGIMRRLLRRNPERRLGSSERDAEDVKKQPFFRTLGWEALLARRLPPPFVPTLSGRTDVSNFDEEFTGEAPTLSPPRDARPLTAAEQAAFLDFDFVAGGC

COc1ccc2ncnc(Nc3cccc(F)c3)c2c1 [5ay, N-(3-Fluorophenyl)-6-Methoxy-4-Quinazolinamine]
remaining activity at 10 µM (PRK1(h); [1]): 77%
remaining activity at 10 µM (PRKG2(h); [1]): 113%
remaining activity at 10 µM (EGFR(T790M)(h); [1]): 65%
remaining activity at 10 µM (TLK1(h); [1]): 107%
remaining activity at 10 µM (NUAK2(h); [1]): 110%

Fc1ccc(CNc2ncnc3ccc(F)cc23)cc1 [5aa, 6-Fluoro-N-(4-fluorobenzyl)-4-Quinazolinamine]
remaining activity at 10 µM (PRK1(h); [2]): 89%
remaining activity at 10 µM (PRKG2(h); [2]): 103%
remaining activity at 10 µM (EGFR(T790M)(h); [2]): 90%
remaining activity at 10 µM (TLK1(h); [2]): 112%
remaining activity at 10 µM (NUAK2(h); [2]): 121%

Fc1ccc2ncnc(NCCc3ccc(Cl)cc3)c2c1 [5at, N-[2-(4-Chlorophenyl)Ethyl]-6-Fluoro-4-Quinazolinamine]
remaining activity at 10 µM (PRK1(h); [3]): 80%
remaining activity at 10 µM (PRKG2(h); [3]): 79%
remaining activity at 10 µM (EGFR(T790M)(h); [3]): 74%
remaining activity at 10 µM (TLK1(h); [3]): 97%
remaining activity at 10 µM (NUAK2(h); [3]): 117%

Fc1ccc(CCNc2ncnc3ccc(F)cc23)cc1 [5as, 6-Fluoro-N-[2-(4-Fluorophenyl)Ethyl]-4-Quinazolinamine]
remaining activity at 10 µM (PRK1(h); [4]): 72%
remaining activity at 10 µM (PRKG2(h); [4]): 96%
remaining activity at 10 µM (EGFR(T790M)(h); [4]): 87%
remaining activity at 10 µM (TLK1(h); [4]): 112%
remaining activity at 10 µM (NUAK2(h); [4]): 112%
